Laboratory results taken from patent US10258603B2 (priority 2014, dated 2019).

What follows are molecules tested against T1, BRD9 (Homo sapiens, UniProt Q9H8M2) (assay: BRD9 AlphaLisa Binding Assay). Conditions: not given.
T1 construct: 134-239 was cloned, expressed, and purified to homogeneity; Flag; made in house
T1 sequence (Q9H8M2 134-239 limits assumed): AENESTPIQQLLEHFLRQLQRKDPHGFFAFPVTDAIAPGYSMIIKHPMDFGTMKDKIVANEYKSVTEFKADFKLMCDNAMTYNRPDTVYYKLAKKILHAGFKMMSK
Experimental: IC50 Measurements for Inhibitors Using BRD9 AlphaLisa Binding Assay His/Flag epitope tagged BRD9134-239 was cloned, expressed, and purified to homogeneity. […] After 20 minutes incubation at room temperature AlphaLisa Streptavidin Acceptor Beads (Perkin-A[…]) and AlphaLisa Nickel donor beads (Perkin AS 10 ID) were added to a final concentration of 15 ug/mL each.

Row | Molecule | IC50
1 | CC=CCn1cc(C(=O)NCC2CCN(C)CC2)c2cc[nH]c2c1=O [Example 11, 6-but-2-enyl-N-[(1-methyl-4-piperidyl)methyl]-7-oxo-1H-pyrrolo[2,3-c]pyridine-4-carboxamide] | 5.4 µM
2 | CC(NC(=O)c1cn(C)c(=O)c2[nH]ccc12)C1CC2CCC1C2 (stereo not drawn) [Example 106] | 0.24 µM
3 | Cn1cc(C(=O)NCC2Cc3ccccc3O2)c2cc[nH]c2c1=O (stereo not drawn) [Example 110] | 0.85 µM
4 | CCCCn1cc(C(=O)NCc2ccccc2)c2cc[nH]c2c1=O [Example 259] | 0.6 µM
5 | Cn1cc(C(=O)NCc2ccccc2)c2cc[nH]c2c1=O [Example 257] | 0.18 µM
6 | CN(C(=O)c1cn(C)c(=O)c2[nH]ccc12)C1CCN(Cc2ccccc2)C1 (stereo not drawn) [Example 22, N-(1-benzylpyrrolidin-3-yl)-N,6-dimethyl-7-oxo-1H-pyrrolo[2,3-c]pyridine-4-carboxamide] | 7.3 µM
7 | CCCCn1cc(C(=O)NCC2CCN(C)CC2)c2cc[nH]c2c1=O [Example 248] | 3.3 µM
8 | Cn1cc(C(=O)N[C@@H](C(N)=O)c2ccccc2)c2cc[nH]c2c1=O [Example 97] | 0.49 µM
9 | Cn1cc(C(=O)NC2CCCc3ccccc32)c2cc[nH]c2c1=O (stereo not drawn) [Example 125] | 0.13 µM
10 | Cn1cc(C(=O)N2CCNc3ccccc3C2)c2cc[nH]c2c1=O [Example 88] | 1.5 µM
11 | Cc1cc(CC(C)NC(=O)c2cn(C)c(=O)c3[nH]ccc23)on1 (stereo not drawn) [Example 122] | 2.2 µM
12 | Cn1cc(C(=O)NC2COCC2c2ccc(F)cc2)c2cc[nH]c2c1=O (stereo not drawn) [Example 124] | 2.9 µM
13 | Cn1cc(C(=O)NCC2CCCCC2)c2cc[nH]c2c1=O [Example 86] | 0.16 µM
14 | Cn1cc(C(=O)NC(C)(C)c2ccccc2)c2cc[nH]c2c1=O [Example 131] | 1.6 µM
15 | CC(C)N1CCC(CN(C)C(=O)c2cn(C)c(=O)c3[nH]ccc23)CC1 [Example 190] | 15 µM
16 | CC(NC(=O)c1cn(C)c(=O)c2[nH]ccc12)c1ccc(F)cc1 (stereo not drawn) [Example 129] | 0.22 µM
17 | C[C@H](NC(=O)c1cn(C)c(=O)c2[nH]ccc12)c1ccccc1 [Example 264] | 0.44 µM

Row | Molecule | IC50
18 | CN1CCC(NC(=O)c2cn(C)c(=O)c3[nH]ccc23)C1 (stereo not drawn) [Example 6, 6-methyl-N-(1-methylpyrrolidin-3-yl)-7-oxo-1H-pyrrolo[2,3-c]pyridine-4-carboxamide] | 1.5 µM
19 | CC=CCn1cc(C(=O)NCCN2CCN(C)CC2)c2cc[nH]c2c1=O [Example 12, 6-but-2-enyl-N-[2-(4-methylpiperazin-1-yl)ethyl]-7-oxo-1H-pyrrolo[2,3-c]pyridine-4-carboxamide] | 0.84 µM
20 | CC=CCn1cc(C(=O)NC2(C)CCCCC2)c2cc[nH]c2c1=O [Example 18, 6-but-2-enyl-N-(1-methylcyclohexyl)-7-oxo-1H-pyrrolo[2,3-c]pyridine-4-carboxamide] | 2.1 µM
21 | CC1CCCN(CCNC(=O)c2cn(C)c(=O)c3[nH]ccc23)C1 (stereo not drawn) [Example 45, 6-methyl-N-[2-(3-methyl-1-piperidyl)ethyl]-7-oxo-1H-pyrrolo[2,3-c]pyridine-4-carboxamide] | 6.1 µM
22 | CC(C)[C@H](NC(=O)c1cn(C)c(=O)c2[nH]ccc12)C(N)=O [Example 98] | 0.55 µM
23 | C=CCn1cc(C(=O)N(C)C2CCN(c3ccncn3)CC2)c2cc[nH]c2c1=O [Example 161, 6-allyl-N-methyl-7-oxo-N-(1-pyrimidin-4-yl-4-piperidyl)-1H-pyrrolo[2,3-c]pyridine-4-carboxamide] | 2.9 µM
24 | Cn1cc(C(=O)NCC2CN(C(=O)OC(C)(C)C)CCO2)c2cc[nH]c2c1=O (stereo not drawn) [Example 134] | 0.28 µM
25 | Cn1cc(C(=O)N[C@H](C(N)=O)c2ccccc2)c2cc[nH]c2c1=O [Example 90] | 0.3 µM
26 | CN1CCN(CCCNC(=O)c2cn(C)c(=O)c3[nH]ccc23)CC1 [Example 34, 6-methyl-N-[3-(4-methylpiperazin-1-yl)propyl]-7-oxo-1H-pyrrolo[2,3-c]pyridine-4-carboxamide] | 2.2 µM
27 | Cn1cc(C(=O)NCC2CCOC2)c2cc[nH]c2c1=O (stereo not drawn) [Example 102] | 0.86 µM
28 | CC=CCn1cc(C(=O)NCCCN2CCN(C)CC2)c2cc[nH]c2c1=O [Example 9, 6-but-2-enyl-N-[3-(4-methylpiperazin-1-yl)propyl]-7-oxo-1H-pyrrolo[2,3-c]pyridine-4-carboxamide] | 0.92 µM
29 | Cn1cc(C(=O)NCc2cccc3ccccc23)c2cc[nH]c2c1=O [Example 114] | 0.073 µM
30 | CC(NC(=O)c1cn(C)c(=O)c2[nH]ccc12)c1ccncc1 (stereo not drawn) [Example 115] | 0.64 µM
31 | Cn1cc(C(=O)NCC2CCCN2C(=O)OC(C)(C)C)c2cc[nH]c2c1=O (stereo not drawn) [Example 136, tert-butyl 2-[[(6-methyl-7-oxo-1H-pyrrolo[2,3-c]pyridine-4-carbonyl)amino]methyl]pyrrolidine-1-carboxylate] | 0.4 µM
32 | CN1CCN(C(=O)c2cn(C)c(=O)c3[nH]ccc23)CC1 [Example 38, 6-methyl-4-(4-methylpiperazine-1-carbonyl)-1H-pyrrolo[2,3-c]pyridin-7-one] | 8 µM
33 | Cn1cc(C(=O)N2CCC(c3ccccc3)C2)c2cc[nH]c2c1=O (stereo not drawn) [Example 89] | 4.1 µM
34 | CC(NC(=O)c1cn(C)c(=O)c2[nH]ccc12)c1ccccc1Cl (stereo not drawn) [Example 118] | 0.24 µM

What follows are molecules tested against T2, TAF1-BD2 (Homo sapiens, UniProt P21675) (assay: TAF1-BD2 TR-FRET Binding Assay). Conditions: Assay: TAF-1.
T2 sequence (P21675 1525-1656): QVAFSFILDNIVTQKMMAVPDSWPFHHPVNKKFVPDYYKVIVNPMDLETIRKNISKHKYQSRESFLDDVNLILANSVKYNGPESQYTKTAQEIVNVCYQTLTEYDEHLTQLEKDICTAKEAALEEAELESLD
Experimental: Specifically, in a 384 well ProxiPlate TAF1-BD2 (6 nM final) was combined with biotin-ligand (50 nM final) in 50 mM HEPES (pH 7.5), 50 mM NaCl, 1 mM TCEP, 0.01% (w/v) BSA, and 0.008% (w/v) Brij-35 either in the presence of DMSO (final 0.2% DMSO) or compound dilution series in DMSO. After 10 minutes incubation at room temperature, a mixture Eu-W1024 Anti-6×His antibody (Perkin Elmer AD0110) and SureLight™ Allophycocyanin-Streptavidin (APC-SA, Perkin Elmer CR130-100) were added to a final concentrations of 0.2 nMolar antibody and 25 nMolar APC-SA, respectively. After twenty minutes of equilibration, the plates were read on an Envision instrument and IC50s calculated using a four parameter non-linear curve fit.

Row | Molecule | IC50
35 | CC=CCn1cc(C(=O)NCCCNC(=O)OCc2ccccc2)c2cc[nH]c2c1=O [Example 17, benzyl N-[3-[(6-but-2-enyl-7-oxo-1H-pyrrolo[2,3-c]pyridine-4-carbonyl)amino]propyl]carbamate] | 3.6 µM
36 | CN(CC1CCN(Cc2cccc(Cl)c2)CC1)C(=O)c1cn(C)c(=O)c2[nH]ccc12 [Example 199] | 18 µM
37 | Cn1cc(C(=O)N2CCC(c3cccc(F)c3)CC2)c2cc[nH]c2c1=O [Example 49, 4-[4-(3-fluorophenyl)piperidine-1-carbonyl]-6-methyl-1H-pyrrolo[2,3-c]pyridin-7-one] | 3.9 µM
38 | Cn1cc(C(=O)NC2CCN(c3cccnn3)CC2)c2cc[nH]c2c1=O [Example 155, 6-methyl-7-oxo-N-(1-pyridazin-3-yl-4-piperidyl)-1H-pyrrolo[2,3-c]pyridine-4-carboxamide] | 0.33 µM
39 | Cn1cc(C(=O)N2CCC(c3ccc(Cl)cc3)CC2)c2cc[nH]c2c1=O [Example 48, 4-[4-(4-chlorophenyl)piperidine-1-carbonyl]-6-methyl-1H-pyrrolo[2,3-c]pyridin-7-one] | 1.5 µM
40 | COCCN(C(=O)c1cn(C)c(=O)c2[nH]ccc12)C1CCN(C)CC1 [Example 84] | 5.7 µM
41 | CC=CCn1cc(C(=O)NCC2CN(C(=O)OC(C)(C)C)C2)c2cc[nH]c2c1=O [Example 10, tert-butyl 3-[[(6-but-2-enyl-7-oxo-1H-pyrrolo[2,3-c]pyridine-4-carbonyl)amino]methyl]azetidine-1-carboxylate] | 4.7 µM
42 | CN1CCC(CCNC(=O)c2cn(C)c(=O)c3[nH]ccc23)CC1 [Example 25, 6-methyl-N-[2-(1-methyl-4-piperidyl)ethyl]-7-oxo-1H-pyrrolo[2,3-c]pyridine-4-carboxamide] | 0.69 µM
43 | CN1CCCC(CNC(=O)c2cn(C)c(=O)c3[nH]ccc23)C1 (stereo not drawn) [Example 24, 6-methyl-N-[(1-methyl-3-piperidyl)methyl]-7-oxo-1H-pyrrolo[2,3-c]pyridine-4-carboxamide] | 0.15 µM
44 | CCN1CCC(CN(C)C(=O)c2cn(C)c(=O)c3[nH]ccc23)C1 (stereo not drawn) [Example 27, N-[(1-ethylpyrrolidin-3-yl)methyl]-N,6-dimethyl-7-oxo-1H-pyirolo[2,3-c]pyridine-4-carboxamide] | 6.9 µM
45 | CC(C)N1CC[C@H](NC(=O)c2cn(C)c(=O)c3[nH]ccc23)[C@H](C)C1 (relative stereo) [Example 238] | 2.1 µM
46 | CN(C)C1CCN(C(=O)c2cn(C)c(=O)c3[nH]ccc23)CC1 [Example 40, 4-[4-(dimethylamino)piperidine-1-carbonyl]-6-methyl-1H-pyrrolo[2,3-c]pyridin-7-one] | 0.069 µM
47 | CN(CC1CCN(CC2CCCO2)CC1)C(=O)c1cn(C)c(=O)c2[nH]ccc12 (stereo not drawn) [Example 231] | 9.9 µM
48 | N-cyclopropyl-6-methyl-N-(1-methyl-4-piperidyl)-7-oxo-1H-pyrrolo[2,3-c]pyridine-4-carboxamide [Example 81] | 0.71 µM
49 | Cn1cc(C(=O)N2CCC(Cc3ccccn3)CC2)c2cc[nH]c2c1=O [Example 58, 6-methyl-4-[4-(2-pyridylmethyl)piperidine-1-carbonyl]-1H-pyrrolo[2,3-c]pyridin-7-one] | 1.5 µM
50 | C=CCn1cc(C(=O)N(C)C2[C@H]3CN(c4nccc(C(F)(F)F)n4)C[C@@H]23)c2cc[nH]c2c1=O (stereo partly drawn) [Example 250] | 14 µM
51 | Cn1cc(C(=O)NCC2CCN(C(=O)OC(C)(C)C)CC2)c2cc[nH]c2c1=O [Example 133] | 0.85 µM
52 | CN(CC1CCN(Cc2ccc(Cl)cc2)CC1)C(=O)c1cn(C)c(=O)c2[nH]ccc12 [Example 200, N-[[1-[(4-chloropbenyl)methyl]-4-piperidyl]methyl]-N,6-dimethyl-7-oxo-1H-pyrrolo[2,3-c]pyridine-4-carboxamide] | 8 µM
53 | Cn1cc(C(=O)NC2CCN(c3nccc(C#N)n3)CC2)c2cc[nH]c2c1=O [Example 156, N-[1-(4-cyanopyrimidin-2-yl)-4-piperidyl]-6-methyl-7-oxo-1H-pyrrolo[2,3-c]pyridine-4-carboxamide] | 0.99 µM
54 | CN(C(=O)c1cn(C)c(=O)c2[nH]ccc12)C1CCN(CC2CCCC2)CC1 [Example 219] | 3.6 µM
